In patent US20200368234A1, “PHOTORECEPTOR GENE MODULATOR PHOTOREGULIN 3 FOR TREATMENT OF RETINAL DISEASE” (University of Washington, priority 2017, published 2020):
“Also recorded” adds a separate entry of the source.

Tests used:
[1] = test system: S Opsin+ cells in the ventral retina; assay: S Opsin+ cell count in intact retinal explant cultures; format: cell-based; conditions: P11 mouse intact retina explants, 0.3 μM PR3, 3 DIV, vs DMSO
Description: Scale bar represents 50 μm. E. PR3-treated retinas had more S Opsin+ cells per 100 μm×100 μm field in the ventral retina compared to DMSO-treated retinas (n=3, *p<0.05, Student's t-test).
FIG. 1E is a graph quantifying the effects of PR3 on S-opsin expression; treatment conditions were the same as those in FIG. 1D. S-opsin+ cones are predominantly present in the ventral retina of mice.
Mutations in Nr2e3 result in an increased number of S Opsin+ photoreceptors as well as a reduction in rod gene expression. To determine if PR3 treatment also affects cone gene expression, intact retinas were explanted from P11 wild type mice in media containing DMSO or PR3 for 3 days. Intact retinas were used for this experiment to assess changes in dorsal and ventral retina independently. After fixation and whole mount immunostaining, S Opsin+ cells were counted in the ventral retina.
Intact retinas without RPE from P11 C57Bl/6 mice were explanted on 0.4 μm pore tissue culture inserts in media (Neurobasal-A containing 1% FBS, 1% N2, 1% B27, 1% Pen/Strep, and 0.5% L-Glutamine) containing DMSO or 0.3 μM Photoregulin3. Full media changes were performed every other day. […] Cells were counted from single plane confocal images taken at fixed settings.

[2] = test system: Rho^P23H mice; assay: ERG visual function in Rho^P23H mice at P21; format: in vivo, mouse; conditions: 10 mg/kg PR3, vs littermate DMSO controls
Method: FIG. 4A compares scotopic b-wave amplitudes from P21 Rhodopsin^P23H mice treated with 10 mg/kg PR3 or DMSO vehicle (n=4-8, *p<0.05, t-test).
FIG. 4D compares photopic b-wave amplitudes from P21 Rhodopsin^P23H mice treated with 10 mg/kg PR3 or DMSO vehicle (n=4-8, *p<0.05, t-test).
To determine whether photoreceptor degeneration can be prevented, Rho^P23H mice were treated with PR3 or vehicle from P12-P14 until P21, during the period of rod photoreceptor death (FIG. 3A). At P21, visual function was assessed with ERGs and euthanized the mice for histological and qPCR analyses. At P21, control Rho^P23H mice had only 2-3 rows of photoreceptors remaining in their ONL (FIGS. 3B and 3C). Rods were sparse and there were few remaining cones (S Opsin+ and Cone Arrestin+ photoreceptors). Control Rho^P23H mice had minimal scotopic and photopic b-wave amplitudes by ERG analysis (FIGS. 4A, 4B, 4D, and 4E). […] The surviving cones in the PR3-treated retinas were more elongated and healthier than in the DMSO control retinas.
Photoregulin3 was identified by searching previous small molecule screens with SciFinder and PubChem for Nr2e3 interacting molecules. It was initially obtained from ChemDiv and then synthesized and purified in large quantities in the lab after initial screening. For in vivo experiments, mice were injected intraperitoneally with PR3 dissolved in DMSO at 10 mg/kg. […]

[3] = target: T1, Nr2e3-NCOR dimer complex (Homo sapiens, UniProt Q9Y5X4); conditions: PubChem Assay IDs 602229, 624378, 624394, 651849; cited from earlier work
T1 construct: expressed in transfected cells; host or cells: CHO-S cells
T1 sequence (Q9Y5X4 whole entry, one chain of several): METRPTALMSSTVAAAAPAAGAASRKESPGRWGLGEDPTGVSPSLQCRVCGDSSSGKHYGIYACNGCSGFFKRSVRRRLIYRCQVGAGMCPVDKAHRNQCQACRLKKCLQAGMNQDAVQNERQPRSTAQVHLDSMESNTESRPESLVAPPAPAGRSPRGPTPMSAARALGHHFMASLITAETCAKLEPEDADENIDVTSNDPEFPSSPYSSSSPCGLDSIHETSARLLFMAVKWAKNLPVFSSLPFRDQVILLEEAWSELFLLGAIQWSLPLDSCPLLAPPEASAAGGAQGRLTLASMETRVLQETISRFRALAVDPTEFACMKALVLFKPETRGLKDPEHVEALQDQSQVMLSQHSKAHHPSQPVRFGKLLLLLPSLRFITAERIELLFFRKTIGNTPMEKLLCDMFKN

In the case of `COc1cc2nc(CN3CC=C(c4ccccc4)CC3)nc(O)c2cc1OC` [PR3], the “S Opsin+ cells per 100 μm×100 μm field in the ventral retina” value [1] is reported as “significantly more S Opsin+ cells per 100 μm×100 μm field in the ventral retina compared to DMSO-treated retinas; also recorded: increase in the number S Opsin+ cells in the ventral retina”, the “photopic b-wave amplitudes (ERG)” value [2] is reported as “significantly elevated” and the “scotopic b-wave amplitudes (ERG)” value [2] is reported as “significantly elevated”. For the same molecule, the “modulation of Nr2e3 in luciferase-based assay” value [3] was “identified as a chemical modulator of Nr2e3”.
